Assay results reported in the PolyMetriX glass transition set.
± gives the standard deviation of the reports.

SMILES | glass transition temperature [°C]
*c1ccc(-c2sc(-c3ccc(-c4cc(CCCC)c(*)s4)cc3)cc2CCCC)cc1 (repeat unit) | 58.30
*CCCCCCCOC(=O)c1ccc(C(=O)O*)cc1 (repeat unit) | -1.00
*Oc1ccc(CC(NC(=O)CCc2ccc(OC(=O)CCCCCCCCC(*)=O)cc2)C(=O)OC(C)C)cc1 (repeat unit) | 44.00
*Oc1ccc(-c2ccc(OC(=O)CCCCCCCCCCCCC(*)=O)cc2)cc1 (repeat unit) | 95.00
*c1ccc(-c2nc3ccc(-c4ccc5nc(*)c(-c6ccccc6)c(-c6ccccc6)c5c4)cc3c(-c3ccccc3)c2-c2ccccc2)cc1 (repeat unit) | 400.00
*Oc1ccc(C(C)(C)c2ccc(OC(=O)NC(=O)c3cc(C(=O)NC(*)=O)cc(C(C)(C)C)c3)cc2)cc1 (repeat unit) | 123.50
*CCOCCOCCOCCOc1ccc(/C=C(\C)c2ccc(O*)cc2)cc1 (repeat unit) | 7.50
*NNC(=O)/C=C/C(=O)Nc1cccc(/C=C2\CCC/C(=C\c3cccc(NC(=O)/C=C/C(*)=O)c3)C2=O)c1 (repeat unit) | 238.40
*CC(*)(C)C(=O)OCCC (repeat unit) [Poly(n-propyl methacrylate) ] | 35 ± 5.4
*CC(*)(CC(=O)Oc1ccc(OCC)cc1)C(=O)Oc1ccc(OCC)cc1 (repeat unit) | 110.50
*O[Si](c1ccccc1)(c1ccccc1)c1ccc([Si](*)(c2ccccc2)c2ccccc2)cc1 (repeat unit) | 130.00
*CC(*)c1ccc(COc2ccc(-c3ccc(C#N)cc3)cc2)cc1 (repeat unit) | 132.00
*c1ccc(Nc2ccc(C3(c4ccc(Nc5ccc(S(*)(=O)=O)cc5)cc4)c4ccccc4-c4ccccc43)cc2)cc1 (repeat unit) | 221.00
*Oc1ccc(Oc2ccc(C(=O)c3cccc(NC(=O)c4cccc(C(=O)Nc5cccc(C(=O)c6ccc(*)cc6)c5)c4)c3)cc2)cc1 (repeat unit) | 202.00
*CC(C)(CC)CO* (repeat unit) | -47.00
*Oc1ccc(C(=O)Nc2ccc(C(c3ccc(NC(=O)c4ccc(*)cc4)cc3)(P3(=O)Oc4ccccc4-c4ccccc43)P3(=O)Oc4ccccc4-c4ccccc43)cc2)cc1 (repeat unit) | 243.00
*c1ccc(Cc2ccc(S(*)(=O)=O)cc2)cc1 (repeat unit) | 227.50
*Nc1ccc(Cc2ccc(NC(=O)c3cccc(C(*)=O)c3)cc2)cc1 (repeat unit) | 265.00

remark: another data set of the same source

SMILES | glass transition temperature [°C]
*Oc1cccc(C(=O)c2ccc(Oc3cccc4c3C(=O)N(c3ccc(Oc5ccc(N6C(=O)c7cccc(*)c7C6=O)cc5)cc3)C4=O)cc2)c1 (repeat unit) | 252.00
*c1ccc(Oc2ccc(Oc3ccc(-n4c(=O)c5ccc6c(=O)n(*)c(=O)c6c5c4=O)cc3)cc2)cc1 (repeat unit) | 292.00
*c1cccc(Oc2ccc(P(=O)(c3ccccc3)c3ccc(Oc4ccc(N5C(=O)c6ccc(-c7ccc8c(c7)C(=O)N(*)C8=O)cc6C5=O)cc4)cc3)cc2)c1 (repeat unit) | 241.00
*c1ccc2c(c1)C(=O)N(c1cc(N3C(=O)c4ccc(*)cc4C3=O)cc(C(F)(F)F)c1)C2=O (repeat unit) | 329.00
*Oc1ccc2c(c1)C(=O)N(c1cccc(C(=O)c3cccc(N4C(=O)c5ccc(*)cc5C4=O)c3)c1)C2=O (repeat unit) | 239.00 ± 4
*c1ccc2c(c1)C(=O)N(c1cc(C(F)(F)F)cc(N3C(=O)c4ccc(C(*)(C(F)(F)F)C(F)(F)F)cc4C3=O)c1OC(c1c(F)c(F)c(F)c(F)c1F)c1c(F)c(F)c(F)c(F)c1F)C2=O (repeat unit) | 321.70
*c1cc(N2C(=O)c3ccc(-c4ccc5c(c4)C(=O)N(*)C5=O)cc3C2=O)ccc1OCC(F)(F)C(F)(F)C(F)(F)C(F)(F)C(F)(F)C(F)(F)C(F)(F)C(F)(F)C(F)(F)C(F)(F)F (repeat unit) | 230.00
*Oc1cccc2c1C(=O)N(c1cccc(C(=O)c3cccc(N4C(=O)c5cccc(*)c5C4=O)c3)c1)C2=O (repeat unit) | 234.00
*Oc1cccc(C(C)(C)c2ccc(Oc3ccc4c(c3)C(=O)N(c3ccc(Oc5cccc(Oc6ccc(N7C(=O)c8ccc(*)cc8C7=O)cc6)c5)cc3)C4=O)cc2)c1 (repeat unit) | 178.00
*Oc1cccc(Sc2ccc(Oc3ccc4c(c3)C(=O)N(c3cccc(N5C(=O)c6ccc(*)cc6C5=O)c3)C4=O)cc2)c1 (repeat unit) | 209.00
*Oc1cccc(C(C)(C)c2ccc(Oc3cccc4c3C(=O)N(c3ccc(Oc5ccc(N6C(=O)c7cccc(*)c7C6=O)cc5)cc3)C4=O)cc2)c1 (repeat unit) | 235.00
*c1ccc2c(c1)C(=O)N(c1ccc(OCC(F)(F)C(F)(F)C(F)(F)C(F)(F)C(F)(F)C(F)(F)C(F)(F)F)c(N3C(=O)c4ccc(C(*)(C(F)(F)F)C(F)(F)F)cc4C3=O)c1)C2=O (repeat unit) | 226.00
*c1ccc2c(c1)C(=O)N(c1ccc(OCC(F)(F)C(F)(F)C(F)(F)C(F)(F)C(F)(F)C(F)(F)C(F)(F)C(F)(F)C(F)(F)C(F)(F)F)c(N3C(=O)c4ccc(C(*)(C(F)(F)F)C(F)(F)F)cc4C3=O)c1)C2=O (repeat unit) | 189.00
*Oc1cccc(Oc2ccc(Oc3ccc4c(c3)C(=O)N(c3cccc(N5C(=O)c6ccc(*)cc6C5=O)c3)C4=O)cc2)c1 (repeat unit) | 227.00
*c1ccc2c(c1)C(=O)N(c1ccc(Oc3c(F)c(F)c(-c4c(F)c(F)c(Oc5ccc(N6C(=O)c7ccc(C(*)(C(F)(F)F)C(F)(F)F)cc7C6=O)cc5)c(F)c4F)c(F)c3F)cc1)C2=O (repeat unit) | 271.20
*Sc1ccc2c(c1)C(=O)N(c1ccc(Oc3ccc(N4C(=O)c5cccc(*)c5C4=O)cc3)cc1)C2=O (repeat unit) | 267.50 ± 8.4

SMILES | glass transition temperature [°C]
*Oc1ccc(C(c2ccc(Oc3ccc4c(c3)C(=O)N(CCCCN3C(=O)c5ccc(*)cc5C3=O)C4=O)cc2)(C(F)(F)F)C(F)(F)F)cc1 (repeat unit) | 180.00
*c1ccc(-c2ccc(N3C(=O)c4cc5c(cc4C3=O)C(C(F)(F)F)(C(F)(F)F)c3cc4c(cc3O5)C(=O)N(*)C4=O)cc2OC(C)(F)F)c(OC(C)(F)F)c1 (repeat unit) | 363.00
*C1=C(Cl)C(=O)N(c2ccc(Cc3ccc(N4C(=O)C(Cl)=C(Oc5ccc(*)cc5)C4=O)cc3)cc2)C1=O (repeat unit) | 192.00
*c1cc(N2C(=O)c3ccc(-c4ccc5c(c4)C(=O)N(*)C5=O)cc3C2=O)ccc1OCC(F)(F)C(F)(F)C(F)(F)C(F)(F)C(F)(F)C(F)(F)C(F)(F)F (repeat unit) | 250.00
*c1ccc2c(c1)C(=O)N(c1ccc(-c3ccc(N4C(=O)c5ccc(C(*)(C(F)(F)F)C(F)(F)F)cc5C4=O)cc3C#N)c(C#N)c1)C2=O (repeat unit) | 331.00
*C1=C(Cl)C(=O)N(c2ccc(Cc3ccc(N4C(=O)C(Cl)=C(Oc5ccc(C(C)(C)c6ccc(*)cc6)cc5)C4=O)cc3)cc2)C1=O (repeat unit) | 173.00
*Oc1ccc2c(c1)C(=O)N(c1ccc(Sc3ccc(N4C(=O)c5ccc(*)cc5C4=O)cc3)cc1)C2=O (repeat unit) | 269.00
*Sc1ccc2c(c1)C(=O)N(c1ccc(Oc3ccc4ccccc4c3-c3c(Oc4ccc(N5C(=O)c6ccc(*)cc6C5=O)cc4C(F)(F)F)ccc4ccccc34)c(C(F)(F)F)c1)C2=O (repeat unit) | 273.00
*Oc1cccc(Oc2ccc(Oc3cccc4c3C(=O)N(c3ccc(Oc5cccc(Oc6ccc(N7C(=O)c8cccc(*)c8C7=O)cc6)c5)cc3)C4=O)cc2)c1 (repeat unit) | 198.00
*Oc1ccc(Sc2ccc(Oc3ccc4c(c3)C(=O)N(c3cc(N5C(=O)c6ccc(*)cc6C5=O)cc(C(F)(F)F)c3)C4=O)cc2)cc1 (repeat unit) | 218.00
*C(=O)Nc1ccc2ccccc2c1-c1c(NC(=O)c2ccc3c(c2)C(=O)N(c2ccc(Oc4ccc(N5C(=O)c6ccc(*)cc6C5=O)cc4)cc2)C3=O)ccc2ccccc12 (repeat unit) | 287.80
*C(=O)c1ccc2c(c1)C(=O)N(c1ccc(Oc3cccc(N4C(=O)c5ccc(*)cc5C4=O)c3)cc1)C2=O (repeat unit) | 252.00
*Oc1cccc(C(C)(C)c2ccc(Oc3cccc4c3C(=O)N(c3ccc(Oc5cccc(Oc6ccc(N7C(=O)c8cccc(*)c8C7=O)cc6)c5)cc3)C4=O)cc2)c1 (repeat unit) | 202.00
*c1ccc(-c2ccc(N3C(=O)c4ccc(-c5ccc6c(c5)C(=O)N(*)C6=O)cc4C3=O)cc2OC(F)(F)F)c(OC(F)(F)F)c1 (repeat unit) | 335.00
*c1cccc2c1C(=O)N(c1ccc(C3(c4ccc(N5C(=O)c6cccc(*)c6C5=O)c(C)c4)c4ccccc4-c4ccccc43)cc1C)C2=O (repeat unit) | 313.00 ± 2.8
*c1ccc2c(c1)C(=O)N(c1ccc(-c3ccc(N4C(=O)c5ccc(C(*)(C(F)(F)F)C(F)(F)F)cc5C4=O)cc3-c3cc(C(F)(F)F)cc(C(F)(F)F)c3)c(-c3cc(C(F)(F)F)cc(C(F)(F)F)c3)c1)C2=O (repeat unit) | 263.00
